The record followed here is US20090074774A1, “Fgfr binding peptides” (priority 2004, published 2009).

Entries after “also recorded” stand apart in the source; their conditions may differ.

The subject of test [1] is rat cerebellar granular neurons (CGNs). In words: Stimulation of neurite outgrowth of cerebellar granule neurons in culture. The format is cell-based. The note with it: for stimulation of neurite outgrowth: CGNs from 7-day-old rats, peptide treatment 24 h, culture without substrate; for effect of FGFR inhibitor on neurite outgrowth stimulated by EFL: CGNs. The method, then:
B. Neurite outgrowth stimulated by EFL is inhibited by SU5402, an inhibitor of fibroblast growth factor receptor 1 (FGFR1). Results from four independent experiments are in all cases expressed as a percentage±SEM, with non-treated control cells set at 100%. *P<0.05, **P<0.01, ***P<0.001, compared with control. Paired student's t-test. For experiments, CGNs from 7-old-day rats were treated with the peptides for 24 hr. The cultures were fixed in 4% paraformaldehyde, followed by blocking with 1% BSA and then immunostained with rabbit anti-rat GAP-43 primary antibodies, and then with secondary Alexa Fluor®488 goat anti-rabbit antibodies.
Cerebellar granule neurons (CGN) were prepared from postnatal day seven Wistar rats largely as previously described (Neiiendam et al, (2004) J. Neurochem. 91(4):920-35). Cerebellar tissue was dissected in modified Krebs-Ringer solution kept on ice, and treated as described for the hippocampal neurons above. All cell cultures were incubated at 37° C. in a humidified atmosphere containing 5% CO2. All animals were handled in accordance with the national guidelines for animal welfare.
Dissociated cells were plated at a density of 10,000 cells/cm^2 on uncoated 8-well permanox Lab-Tek chamber slides in Neurobasal medium supplemented with 0.4% (w/v) bovine serum albumin (BSA; Sigma-Aldrich), 2% (v/v) B27 Neurobasal supplement, 1% (v/v) glutamax, 100 U/ml penicillin, 100 μg/ml streptomycin and 2% 1 M HEPES (all from Gibco, BRL). Peptide solutions without or with inhibitors of various signal transduction pathways were added to a total volume of 300 μl/cm^2, and the slides were incubated at 37° C. After 24 hours, the neurons were fixed with 4% (v/v) formaldehyde for 20 minutes and thereafter immunostained using primary rabbit antibodies against GAP-43 and Alexa Fluor secondary goat anti-rabbit antibodies. Images of at least 200 neurons for each group in each individual experiment were obtained systematically by using computer assisted fluorescence microscopy as previously described (Ronn et al., 2000 op. cit.). Briefly, a Nikon Diaphot inverted microscope with a Nikon Plan 20× objective (Nikon, Tokyo, Japan) coupled to a video camera (Grundig Electronics, Germany) was used for recordings. The same software package as described above for the dopaminergic neurite outgrowth assay was used to process the recorded images.

The target of test [2] is T1, recombinant FGFR1 (immobilized FGFR Ig modules 2, 3) (Homo sapiens, UniProt P11362).
T1 construct: The FGFR Ig modules 2, 3 were immobilized on a sensor chip CM5; made in house; host or cells: Drosophila S2 cells (Invitrogen)
T1 sequence (P11362 150-365 limits assumed): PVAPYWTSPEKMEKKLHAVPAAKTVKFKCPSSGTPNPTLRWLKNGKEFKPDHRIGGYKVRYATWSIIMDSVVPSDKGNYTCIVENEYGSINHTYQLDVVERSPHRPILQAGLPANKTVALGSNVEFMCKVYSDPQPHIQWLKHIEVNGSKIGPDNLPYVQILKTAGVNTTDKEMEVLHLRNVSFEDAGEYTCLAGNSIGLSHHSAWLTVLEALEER
In words: Binding of fragments of NCAM F3, 1 to FGFR1 by surface plasmon resonance. The note with it: 25° C., pH 7.4. From the text:
The binding is given as a response difference (Resp. Diff.) between the binding to the sensor chip with the immobilized FGFR1 modules and a blank sensor chip (unspecific binding). Abbreviations: AB-A strand-loop-B strand (corresponds to the ABL peptide of SEQ ID NO: 2); CD-C strand-loop-D strand (corresponds to the CDL peptide of SEQ ID NO: 1); EF-E strand-loop-F strand (corresponds to the EFL peptide of SEQ ID NO: 5); BC-B strand-loop-C strand of F3, 1 module of NCAM; DE-D strand-loop-E strand of F3, 1 module of NCAM; FG-F strand-loop-G strand of F3, 1 module of NCAM.
The FGFR Ig module 3 and modules 2, 3 were expressed in Drosophila S2 cells (Invitrogen, USA) according to the manufacturer's instructions. All the proteins were purified by affinity chromatography using Ni^2+-NTA resin (Qiagen, USA) and/or ion exchange chromatography and gel filtration.
Binding analysis was performed using a BIAcoreX instrument (Biosensor AB) at 25° C. using 10 mM sodium phosphate pH 7.4, 150 mM NaCl as running buffer. The flow-rate was 5 μl/min. Data were analysed by non-linear curve-fitting using the manufacture's software. The FGFR Ig modules 2, 3 were immobilized on a sensor chip CM5 using amine coupling kit (Biosensor AB) as follows: 1) the two halves of the chip (designated Fc1 and Fc2) were activated by 20 μl activation solution; 2) the protein was immobilized on Fc1 using 12 μl 20 μg/ml protein in 10 mM sodium phosphate buffer pH 6.0; 3) Fc1 and Fc2 were blocked by 35 μl blocking solution. Binding of various compounds to the immobilized FGFR modules was studied as follows: A compound was injected simultaneously into Fc1 (with the immobilized FGFR modules) and Fc2 (with nothing immobilized). The curve representing unspecific binding of the compound to the surface of Fc2 was subtracted from the curve representing binding of the protein to the immobilized FGFR modules and the surface of Fc1. The resulting curve was used for analysis. The results of the binding experiments are present on FIG. 4.

In test [3] the test system is rat cerebellar granular neurons. In words: Survival assay of cerebellar granule neurons (apoptosis induced by low KCl). The format is cell-based. To be noted: for survival of CGN in culture: peptides as dendrimers (CDLd, EFLd, ABLd), apoptosis induced by 5 mM KCl, two days; for survival effect compared with the C3 peptide and GDNF: peptides as dendrimers, FIG. 2A. The method, then: The effect of the peptides is compared to the effect of glia-derived neurotrophic factor (GDNF) and dendrimeric form of the C3 peptide (C3d). […] Paired student's t-test.
Primary cultures of CGN were plated at a density of 100,000 cells/cm^2 on poly-L-lysine coated 8-well permanox slides in Neurobasal-A medium (Gibco, BRL) supplemented with 2% (v/v) B27, 0.5% (v/v) glutamax, 100 U/ml penicillin, 100 μg/ml streptomycin and KCl, making the final concentration of KCl in the medium 40 mM. 24 hours after plating, cytosine-β-D-arabinofuranoside (Ara-C; Sigma-Aldrich) was added to a final concentration of 10 μM to avoid proliferation of glial cells, after which the neurons were allowed to differentiate for further six days at 37° C. Apoptotic cell death was induced by washing twice and changing the medium to Basal Medium Eagle (BME; Gibco BRL) supplemented with 1% (v/v) glutamine, 100 U/ml penicillin and 100 μg/ml streptomycin, 3.5 g D-glucose/l and 1% (v/v) sodium pyruvate (Gibco BRL) together with various concentrations of peptide. Thereby the concentration of potassium in the cultures was reduced to 5 mM KCl. Two days after induction of apoptosis, the cells were fixed with 4% formaldehyde and stained with Hoechst 33258 as described for the survival assay employing hippocampal neurons.
The assay is performed as described by D'Mello et al., (1993) (Proc Natl Acad Sci U S A. 90:10989-93).

A further test concerns adult male Wistar rats. In words: Contextual Fear Conditioning Test (CFC). In kind it is in vivo, rat. To be noted: peptide injected immediately after training. The method, then: The rats were handled for 120 seconds every day for 3 days preceding the first day of the experiment. On day 1 (training), the rats received a 1-second shock (unconditioned stimuli) each minute for two minutes. Animals were injected immediately after training with 5 μl EFL, ABL, CDL or control peptide, or the vehicle. Each treatment group consisted of 11-14 rats. In total, […] animals were evaluated. […] Each rat was rated as either “freezing” or “active”, every 2 seconds, using a time-sampling procedure.

Test [4] has as its system caspase3-like activity in cultures of rat cerebellar granular neurons. In words: Caspase-3-like activity assay in cerebellar granule neurons. In kind it is cell-based. To be noted: monomeric peptides; for apoptosis-associated Caspase-3-like activity: cells in culture medium depleted of KCl (5 mM); for effect on Caspase-3-like activity compared with high KCl (40 mM): culture medium depleted of KCl. On the procedure: The effect of the peptide is compared to the effect of high concentration of kCl. *P<0.05, **P<0.01, paired student's t-test
Primary cultures of CGN were prepared as described above and apoptosis in cells was induced as described above.
For the caspase-3 assay, cultured CGN were dislodged, collected by centrifugation and lyzed. Aliquots of lysed cells were used for the assay which was performed according to the manufacturer's instructions (Promega, USA),

Another test deals with rats. In words: Social Recognition Test (SRT). The format is in vivo, rat. To be noted: subcutaneous 4 mg/kg; 1 h and 24 h after administration; paired t-test. On the procedure:
Results from 8-9 animals expressed as a percentage±SEM. Paired t-test (*P<0.05 and ***P<0.001); B Time spent with social investigation at first meeting (T1) and second meeting (T2) 24 h after peptide/vehicle administration. Results from 9 animals expressed as a percentage±SEM. Paired t-test (*P<0.05).
The animals were evaluated using the SRT, 1 hour and 24 hours after subcutaneous injection of the peptide or vehicle.
Habituation session: On the day before the social recognition test (SRT), one habituation session was performed under similar conditions as the test session for adaptation to the experimental room, time when the test was performed, test cage, and contact with juvenile rats (a different juvenile was used during habituation session and social recognition test). The inter-trial interval for the habituation session was of 1 hour.
Experimental session: Each experimental session consisted of an initial and a test trial separated by an inter-trial (retention) interval of 2 hours.
Initial trial. Adult animals were individually housed 1 hour before testing in the test cage. For testing, a juvenile was placed into the cage and the social investigation by the adult rat was measured cumulatively for 4 min. Sniffing and grooming of body parts, anogenital sniffing and close following were scored. […]

Where [5] appears, read: tested on day 8 after conditioning, placebo/control 32%.

For “SIDRVEPYSSTAQVQFD (ABL peptide, fragment of NCAM F3,1) [A strand-loop-B strand fragment of NCAM F3, 1 module]”, the “stimulation of neurite outgrowth” value in test [1] is “inactive”. The “direct binding to FGFR (SPR)” value in test [2] is “capable of direct binding”. In test [3], the “survival of CGN in culture” value is reported as “does not influence survival”.
With `Cc1c[nH]c(/C=C2\C(=O)Nc3ccccc32)c1CCC(=O)O` [SU 5402], the “effect of FGFR inhibitor on neurite outgrowth stimulated by EFL” value was “abolished” in test [1] and “inhibited” in test [1] (listed as SU5402).
Take “TIMGLKPETRYAVR (TIMGLKPETRTYAVR; EFL peptide, fragment of NCAM F3,1) [E strand-loop-F strand fragment of NCAM F3, 1, used as positive control]”: in the test on adult male Wistar rats (tested on day 1 after conditioning, placebo/control 40.0%), the time of freezing result is recorded as “approximately 50.3%”. In the test on adult male Wistar rats (setting [5]), this molecule yielded a time of freezing of 42.5%. Moreover, the “stimulation of neurite outgrowth” value in test [1] is recorded as “strong stimulators; also recorded: stimulate neurite outgrowth”. In test [4], the “apoptosis-associated Caspase-3-like activity” value is “inhibit” and the “effect on Caspase-3-like activity compared with high KCl (40 mM)” value was “comparable”. Moreover, the “direct binding to FGFR (SPR)” value in test [2] was “capable of direct binding”. The “difference between T1 and T2 of the same animal (presence of social memory)” value in the test with rats was “significant differences between T1 and T2”. Further, in test [3], the “survival of CGN in culture” value is reported as “significantly promote survival”; the “survival effect compared with the C3 peptide and GDNF” value is given as “higher”.
In turn, “KAEWKSLGEEAWHSK (CDL peptide, fragment of NCAM F3,1) [C strand-loop-D strand fragment of NCAM F3, 1 module]” had a time of freezing with adult male Wistar rats (setting [5]) of 42.5%. The “stimulation of neurite outgrowth” value in test [1] is on record as “strong stimulators; also recorded: stimulate neurite outgrowth”. In test [4], the “apoptosis-associated Caspase-3-like activity” value is recorded as “inhibit” and the “effect on Caspase-3-like activity compared with high KCl (40 mM)” value is “comparable”. Also, the “direct binding to FGFR (SPR)” value in test [2] is on record as “capable of direct binding”. In addition, the “difference between T1 and T2 of the same animal (presence of social memory)” value in the test on rats was “significant differences between T1 and T2”. In test [3], the “survival of CGN in culture” value was “significantly promote survival”; the “survival effect compared with the C3 peptide and GDNF” value was “higher”.
